# According to patent publication US12180187B2, “1-phenyl-5-azinylpyrazolyl-3-oxyalkyl acids and their use for controlling unwanted plant growth” (BAYER AKTIENGESELLSCHAFT, priority 2019, dated 2024):
# How the values were obtained:
# SETVI [1] = test: Post-emergence action against SETVI, 1.28 kg/ha; format: in vivo, Setaria viridis; settings: dosage 1280 g/ha, visual rating about 3 weeks after treatment vs untreated controls
# Procedure, shortened: (§1)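 Visual rating against untreated plants about 3 weeks after spraying gives % activity, where 0% means like controls and 100% means plants died. Plants were treated post-emergence at the one-leaf stage with compound formulated as wettable powder or emulsion concentrate, applied at 600 L water/ha plus 0.5% additive.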
# POAAN [2] = test: Pre-emergence action against POAAN, 1280 g/ha; format: in vivo, Poa annua; settings: visual scoring after about 3 weeks vs untreated controls, 100% = plants have died, 0% = like control plants
# Procedure, shortened: (§2)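 Weed seeds sown in sandy loam in pots, covered with soil; compound as WP or EC applied to soil surface as aqueous suspension/emulsion with 0.5% additive at 600 L/ha water. Greenhouse, good growth conditions; visual % damage vs untreated controls after about 3 weeks (100% = plants dead, 0% = like control).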
# MATIN [3] = test: Post-emergence action against MATIN, 1.28 kg/ha; format: in vivo, Tripleurospermum inodorum (Matricaria inodora); settings: dosage 1280 g/ha, visual rating about 3 weeks after treatment vs untreated controls (100% = plants died)
# Procedure, shortened: as §1
# ECHCG [4] = test: Pre-emergence action against ECHCG, 1280 g/ha; format: in vivo, Echinochloa crus-galli; settings: visual scoring after about 3 weeks vs untreated controls, 100% = plants have died, 0% = like control plants
# Procedure, shortened: as §2
# ABUTH [5] = test: Post-emergence action against ABUTH, 1.28 kg/ha; format: in vivo, Abutilon theophrasti; settings: dosage 1280 g/ha, visual rating about 3 weeks after treatment vs untreated controls (100% = plants died)
# Procedure, shortened: as §1
# STEME [6] = test: Pre-emergence action against STEME, 1280 g/ha; format: in vivo, Stellaria media; settings: scored visually after about 3 weeks vs untreated controls (100% = plants have died)
# Procedure, shortened: as §2
# DIGSA [7] = test: Post-emergence action against DIGSA, 1.28 kg/ha; format: in vivo, Digitaria sanguinalis; settings: dosage 1280 g/ha, visual rating about 3 weeks after treatment vs untreated controls
# Procedure, shortened: as §1
# KCHSC = test: Post-emergence action against KCHSC, 1.28 kg/ha; format: in vivo, Bassia scoparia; settings: dosage 1280 g/ha, visual rating about 3 weeks after treatment vs untreated controls (100% = plants died)
# Procedure, shortened: as §1
# VERPE [8] = test: Post-emergence action against VERPE, 1.28 kg/ha; format: in vivo, Veronica persica; settings: dosage 1280 g/ha, visual rating about 3 weeks after treatment vs untreated controls (100% = plants died)
# Procedure, shortened: as §1
# ABUTH [9] = test: Pre-emergence action against ABUTH, 1280 g/ha; format: in vivo, Abutilon theophrasti; settings: scored visually after about 3 weeks vs untreated controls (100% = plants have died)
# Excerpt: 1. Pre-Emergence Herbicidal Effect and Crop Plant Compatibility a) Seeds of mono- and dicotyledonous weed plants are placed in plastic pots in sandy loam soil (doubly sown with one species each of mono- or dicotyledonous weed plants per pot) and covered with soil. The compounds of the invention, formulated in the form of wettable powders (WP) or as emulsion concentrates (EC), are then applied onto the surface of the covering soil as aqueous suspension or emulsion with addition of 0.5% additive at a water application rate equivalent to 600 litres per hectare. After the treatment, the pots are placed in a greenhouse and kept under good growth conditions for the trial plants. After about 3 weeks, the effect of the preparations is scored visually in comparison with untreated controls as percentages. For example, 100% activity=the plants have died, 0% activity=like control plants. 1. Pre-Emergence Effectiveness Tables 1 to 12 below show the effects of selected compounds of the general formula (I) according to Tables 1 and 2 on various harmful plants and at an application rate corresponding to 1280 g/ha, which were obtained by the experimental procedure mentioned above.
# AMARE [10] = test: Post-emergence action against AMARE, 1.28 kg/ha; format: in vivo, Amaranthus retroflexus; settings: dosage 1280 g/ha, visual rating about 3 weeks after treatment vs untreated controls (100% = plants died)
# Procedure, shortened: as §1
# POAAN [11] = test: Post-emergence action against POAAN, 1.28 kg/ha; format: in vivo, Poa annua; settings: dosage 1280 g/ha, visual rating about 3 weeks after treatment vs untreated controls
# Procedure, shortened: as §1
# SETVI [12] = test: Pre-emergence action against SETVI, 1280 g/ha; format: in vivo, Setaria viridis; settings: visual scoring after about 3 weeks vs untreated controls, 100% = plants have died, 0% = like control plants
# Procedure, shortened: as §2
# DIGSA [13] = test: Pre-emergence action against DIGSA, 1280 g/ha; format: in vivo, Digitaria sanguinalis; settings: visual scoring after about 3 weeks vs untreated controls, 100% = plants have died, 0% = like control plants
# Procedure, shortened: as §2
# LOLRI [14] = test: Pre-emergence action against LOLRI, 1280 g/ha; format: in vivo, Lolium rigidum; settings: visual scoring after about 3 weeks vs untreated controls, 100% = plants have died, 0% = like control plants
# Procedure, shortened: as §2
# VERPE [15] = test: Pre-emergence action against VERPE, 1280 g/ha; format: in vivo, Veronica persica; settings: scored visually after about 3 weeks vs untreated controls (100% = plants have died)
# Procedure, shortened: as §2
# MATIN [16] = test: Pre-emergence action against MATIN, 1280 g/ha; format: in vivo, Tripleurospermum inodorum (Matricaria inodora); settings: scored visually after about 3 weeks vs untreated controls (100% = plants have died)
# Procedure, shortened: as §2
# ECHCG [17] = test: Post-emergence action against ECHCG, 1.28 kg/ha; format: in vivo, Echinochloa crus-galli; settings: dosage 1280 g/ha, visual rating about 3 weeks after treatment vs untreated controls
# Procedure, shortened: as §1
# ALOMY [18] = test: Pre-emergence action against ALOMY, 1280 g/ha; format: in vivo, Alopecurus myosuroides; settings: visual scoring after about 3 weeks vs untreated controls, 100% = plants have died, 0% = like control plants
# Procedure, shortened: as §2
# AMARE [19] = test: Pre-emergence action against AMARE, 1280 g/ha; format: in vivo, Amaranthus retroflexus; settings: scored visually after about 3 weeks vs untreated controls (100% = plants have died)
# Procedure, shortened: as §2
# LOLRI [20] = test: Post-emergence action against LOLRI, 1.28 kg/ha; format: in vivo, Lolium rigidum; settings: dosage 1280 g/ha, visual rating about 3 weeks after treatment vs untreated controls
# Procedure, shortened: as §1
# ALOMY [21] = test: Post-emergence action against ALOMY, 1.28 kg/ha; format: in vivo, Alopecurus myosuroides; settings: dosage 1280 g/ha, visual rating about 3 weeks after treatment vs untreated controls
# Procedure, shortened: as §1
# STEME [22] = test: Post-emergence action against STEME, 1.28 kg/ha; format: in vivo, Stellaria media; settings: dosage 1280 g/ha, visual rating about 3 weeks after treatment vs untreated controls (100% = plants died)
# Procedure, shortened: as §1
Structure (SMILES),Post-emergence action against SETVI (SETVI [1]) [%],Pre-emergence action against POAAN (POAAN [2]) [%],Post-emergence action against MATIN (MATIN [3]) [%],Pre-emergence action against ECHCG (ECHCG [4]) [%],Pre-emergence action against STEME (STEME [6]) [%],Post-emergence action against DIGSA (DIGSA [7]) [%],Post-emergence action against KCHSC (KCHSC) [%],Post-emergence action against VERPE (VERPE [8]) [%],Pre-emergence action against ABUTH (ABUTH [9]) [%],Post-emergence action against AMARE (AMARE [10]) [%],Post-emergence action against POAAN (POAAN [11]) [%],Pre-emergence action against SETVI (SETVI [12]) [%],Pre-emergence action against DIGSA (DIGSA [13]) [%],Pre-emergence action against LOLRI (LOLRI [14]) [%],Pre-emergence action against VERPE (VERPE [15]) [%],Pre-emergence action against MATIN (MATIN [16]) [%],Post-emergence action against ECHCG (ECHCG [17]) [%],Pre-emergence action against ALOMY (ALOMY [18]) [%],Pre-emergence action against AMARE (AMARE [19]) [%],Post-emergence action against ALOMY (ALOMY [21]) [%],other results
O=C(O)COc1nn(-c2ccccc2F)c(-c2ccc(F)nc2)c1Br [VI-003],100,100,100,100,90,100,90,90,90,90,100,100,100,90,100,100,100,90,100,,Post-emergence action against ABUTH (ABUTH [5]): 90%
COC(=O)COc1nn(-c2c(F)cccc2F)c(-c2ccc(F)nc2)c1C#N [VII-061],90,100,100,100,100,100,90,100,90,90,100,100,100,100,100,100,100,100,100,100,Post-emergence action against LOLRI (LOLRI [20]): 100%; Post-emergence action against ABUTH (ABUTH [5]): 90%; Post-emergence action against STEME (STEME [22]): 100%
CC(Oc1nn(-c2ccccc2F)c(-c2ccc(F)nc2)c1C(F)(F)F)C(=O)O (centres unmarked) [VII-106],90,100,90,100,100,100,100,100,90,,100,100,100,100,100,90,90,100,100,100,Post-emergence action against STEME (STEME [22]): 100%
COC(=O)[C@@H](C)Oc1nn(-c2ccccc2F)c(-c2cnc(F)c(F)c2)c1Br [VII-149],,100,100,,100,100,,90,90,100,100,90,100,100,100,90,,100,100,100,Post-emergence action against LOLRI (LOLRI [20]): 100%
